Source: ChEMBL document CHEMBL3045679, “Microwave-assisted synthesis and pharmacological studies of novel 5-deazaalloxazine derivatives” (2012)
Converted amounts (≈) assume the structure as drawn. The source made the active and inactive calls. The rule behind the calls is not given here.

Tests used:
Pseudomonas aeruginosa [1] = experiment: Antibacterial activity against Pseudomonas aeruginosa NCIM 2200 at 1000 ug/disk after 24 hr by disk diffusion method; assay type: functional; settings: NCIM 2200, 24 h, read-out: DIZ
Aspergillus niger [2] = experiment: Antifungal activity against Aspergillus niger NCIM 1196 at 500 ug/disk after 72 hr by disk diffusion method; assay type: functional; settings: for zone of inhibition at 500 µg/disc: NCIM 1196, 72 h, read-out: DIZ
Aspergillus niger [3] = experiment: Antifungal activity against Aspergillus niger NCIM 1196 at 1000 ug/disk after 72 hr by disk diffusion method; assay type: functional; settings: NCIM 1196, 72 h, read-out: DIZ
Lipomyces lipofer [4] = experiment: Antifungal activity against Lipomyces lipofer NCIM 3252 after 72 hr by broth dilution assay; assay type: functional; settings: NCIM 3252, 72 h
Klebsiella aerogenes [5] = experiment: Antibacterial activity against Enterobacter aerogenes NCIM 2239 after 24 hr by broth dilution assay; assay type: functional; settings: NCIM 2239, 24 h
Streptomyces albus [6] = experiment: Antibacterial activity against Streptomyces albus NCIM 2178 at 1000 ug/disk after 24 hr by disk diffusion method; assay type: functional
Penicillium chrysogenum [7] = experiment: Antifungal activity against Penicillium chrysogenum NCIM 707 at 500 ug/disk after 72 hr by disk diffusion method; assay type: functional
Lipomyces lipofer [8] = experiment: Antifungal activity against Lipomyces lipofer NCIM 3252 at 1000 ug/disk after 72 hr by disk diffusion method; assay type: functional; settings: for zone of inhibition at 1000 µg/disc: NCIM 3252, 72 h, read-out: DIZ
Escherichia coli [9] = experiment: Antibacterial activity against Escherichia coli NCIM 2065 at 500 ug/disk after 24 hr by disk diffusion method; assay type: functional; settings: NCIM 2065, 24 h, read-out: DIZ
Aspergillus niger [10] = experiment: Antifungal activity against Aspergillus niger NCIM 1196 after 72 hr by broth dilution assay; assay type: functional; settings: NCIM 1196, 72 h
Bacillus cereus [11] = experiment: Antibacterial activity against Bacillus cereus NCIM 2155 at 1000 ug/disk after 24 hr by disk diffusion method; assay type: functional; settings: NCIM 2155, 24 h, read-out: DIZ
Bacillus subtilis [12] = experiment: Antibacterial activity against Bacillus subtilis NCIM 2063 at 500 ug/disk after 24 hr by disk diffusion method; assay type: functional
Candida albicans [13] = experiment: Antifungal activity against Candida albicans NCIM 3471 at 1000 ug/disk after 72 hr by disk diffusion method; assay type: functional
Pseudomonas aeruginosa [14] = experiment: Antibacterial activity against Pseudomonas aeruginosa NCIM 2200 after 24 hr by broth dilution assay; assay type: functional; settings: NCIM 2200, 24 h
Streptomyces albus [15] = experiment: Antibacterial activity against Streptomyces albus NCIM 2178 at 500 ug/disk after 24 hr by disk diffusion method; assay type: functional, organism-based
Rhodotorula mucilaginosa [16] = experiment: Antifungal activity against Rhodotorula mucilaginosa NCIM 3174 at 500 ug/disk after 72 hr by disk diffusion method; assay type: functional
Escherichia coli [17] = experiment: Antibacterial activity against Escherichia coli NCIM 2065 at 1000 ug/disk after 24 hr by disk diffusion method; assay type: functional; settings: NCIM 2065, 24 h, read-out: DIZ
Penicillium chrysogenum [18] = experiment: Antifungal activity against Penicillium chrysogenum NCIM 707 at 1000 ug/disk after 72 hr by disk diffusion method; assay type: functional
Aspergillus flavus [19] = experiment: Antifungal activity against Aspergillus flavus NCIM 535 at 1000 ug/disk after 72 hr by disk diffusion method; assay type: functional; settings: NCIM 535, 72 h, read-out: DIZ
Klebsiella aerogenes [20] = experiment: Antibacterial activity against Enterobacter aerogenes NCIM 2239 at 1000 ug/disk after 24 hr by disk diffusion method; assay type: functional; settings: NCIM 2239, 24 h, read-out: DIZ
Bacillus subtilis [21] = experiment: Antibacterial activity against Bacillus subtilis NCIM 2063 after 24 hr by broth dilution assay; assay type: functional; settings: NCIM 2063, 24 h
Aspergillus flavus [22] = experiment: Antifungal activity against Aspergillus flavus NCIM 535 at 500 ug/disk after 72 hr by disk diffusion method; assay type: functional
Bacillus cereus [23] = experiment: Antibacterial activity against Bacillus cereus NCIM 2155 after 24 hr by broth dilution assay; assay type: functional; settings: NCIM 2155, 24 h
Lipomyces lipofer [24] = experiment: Antifungal activity against Lipomyces lipofer NCIM 3252 at 500 ug/disk after 72 hr by disk diffusion method; assay type: functional; settings: for zone of inhibition at 500 µg/disc: NCIM 3252, 72 h, read-out: DIZ
Escherichia coli [25] = experiment: Antibacterial activity against Escherichia coli NCIM 2065 after 24 hr by broth dilution assay; assay type: functional; settings: NCIM 2065, 24 h
Pseudomonas aeruginosa [26] = experiment: Antibacterial activity against Pseudomonas aeruginosa NCIM 2200 at 500 ug/disk after 24 hr by disk diffusion method; assay type: functional; settings: for zone of inhibition at 500 µg/disc: NCIM 2200, 24 h, read-out: DIZ
Candida albicans [27] = experiment: Antifungal activity against Candida albicans NCIM 3471 at 500 ug/disk after 72 hr by disk diffusion method; assay type: functional
Bacillus cereus [28] = experiment: Antibacterial activity against Bacillus cereus NCIM 2155 at 500 ug/disk after 24 hr by disk diffusion method; assay type: functional; settings: NCIM 2155, 24 h, read-out: DIZ
Klebsiella aerogenes [29] = experiment: Antibacterial activity against Enterobacter aerogenes NCIM 2239 at 500 ug/disk after 24 hr by disk diffusion method; assay type: functional; settings: for zone of inhibition at 500 µg/disc: NCIM 2239, 24 h, read-out: DIZ
Bacillus subtilis [30] = experiment: Antibacterial activity against Bacillus subtilis NCIM 2063 at 1000 ug/disk after 24 hr by disk diffusion method; assay type: functional; settings: NCIM 2063, 24 h, read-out: DIZ
Rhodotorula mucilaginosa [31] = experiment: Antifungal activity against Rhodotorula mucilaginosa NCIM 3174 at 1000 ug/disk after 72 hr by disk diffusion method; assay type: functional; settings: for zone of inhibition at 1000 µg/disc: NCIM 3174, 72 h, read-out: DIZ

MIC (Klebsiella aerogenes [5]) | MIC (Aspergillus niger [10]) | MIC (Pseudomonas aeruginosa [14]) | MIC (Bacillus subtilis [21]) | MIC (Bacillus cereus [23]) | MIC (Escherichia coli [25]) | Compound | zone of inhibition at 1000 µg/disc (Pseudomonas aeruginosa [1]) | zone of inhibition at 1000 µg/disc (Aspergillus niger [3]) | diameter of the inhibition zone (DIZ) (Penicillium chrysogenum [7]) | zone of inhibition at 500 µg/disc (Escherichia coli [9]) | zone of inhibition at 1000 µg/disc (Bacillus cereus [11]) | diameter of the inhibition zone (DIZ) (Streptomyces albus [15]) | diameter of the inhibition zone (DIZ) (Rhodotorula mucilaginosa [16]) | zone of inhibition at 1000 µg/disc (Escherichia coli [17]) | zone of inhibition at 1000 µg/disc (Aspergillus flavus [19]) | zone of inhibition at 1000 µg/disc (Klebsiella aerogenes [20]) | diameter of the inhibition zone (DIZ) (Aspergillus flavus [22]) | diameter of the inhibition zone (DIZ) (Candida albicans [27]) | zone of inhibition at 500 µg/disc (Bacillus cereus [28]) | zone of inhibition at 1000 µg/disc (Bacillus subtilis [30]) | also measured
31.2 µg/mL (≈ 118 µM) | 3.9 µg/mL (≈ 14.8 µM) | 7.8 µg/mL (≈ 29.6 µM) | 3.9 µg/mL (≈ 14.8 µM) | 62.5 µg/mL (≈ 237 µM) | 62.5 µg/mL (≈ 237 µM) | O=c1[nH]c(=S)[nH]c2nc3ccc(Cl)cc3cc12 | 13 mm | 14 mm | inactive | 8 mm | 13 mm | inactive | inactive | 10 mm | 10 mm | 10 mm | inactive | inactive | 9 mm | 14 mm | zone of inhibition at 500 µg/disc (Aspergillus niger [2]): 11 mm; MIC (Lipomyces lipofer [4]): 7.8 µg/mL (≈ 29.6 µM); diameter of the inhibition zone (DIZ) (Streptomyces albus [6]): inactive; zone of inhibition at 1000 µg/disc (Lipomyces lipofer [8]): 15 mm; zone of inhibition at 500 µg/disc (Bacillus subtilis [12]; NCIM 2063, 24 h, read-out: DIZ): 11 mm; zone of inhibition at 1000 µg/disc (Candida albicans [13]; NCIM 3471, 72 h, read-out: DIZ): 11 mm; zone of inhibition at 1000 µg/disc (Penicillium chrysogenum [18]; NCIM 707, 72 h, read-out: DIZ): 10 mm; zone of inhibition at 500 µg/disc (Lipomyces lipofer [24]): 9 mm; zone of inhibition at 500 µg/disc (Pseudomonas aeruginosa [26]): 10 mm; zone of inhibition at 500 µg/disc (Klebsiella aerogenes [29]): 8 mm; zone of inhibition at 1000 µg/disc (Rhodotorula mucilaginosa [31]): 12 mm
62.5 µg/mL (≈ 214 µM) | 62.5 µg/mL (≈ 214 µM) | 31.2 µg/mL (≈ 107 µM) | 31.2 µg/mL (≈ 107 µM) | 62.5 µg/mL (≈ 214 µM) | 7.8 µg/mL (≈ 26.7 µM) | O=c1[nH]c(=O)c2cc3cc(Br)ccc3nc2[nH]1 | 12 mm | 12 mm | inactive | 7 mm | 11 mm | inactive | inactive | 11 mm | 11 mm | 10 mm | inactive | inactive | 8 mm | 12 mm | diameter of the inhibition zone (DIZ) (Aspergillus niger [2]): inactive; diameter of the inhibition zone (DIZ) (Streptomyces albus [6]): inactive; diameter of the inhibition zone (DIZ) (Lipomyces lipofer [8]): inactive; diameter of the inhibition zone (DIZ) (Bacillus subtilis [12]): inactive; diameter of the inhibition zone (DIZ) (Candida albicans [13]): inactive; diameter of the inhibition zone (DIZ) (Penicillium chrysogenum [18]): inactive; diameter of the inhibition zone (DIZ) (Lipomyces lipofer [24]): inactive; zone of inhibition at 500 µg/disc (Pseudomonas aeruginosa [26]): 9 mm; diameter of the inhibition zone (DIZ) (Klebsiella aerogenes [29]): inactive; diameter of the inhibition zone (DIZ) (Rhodotorula mucilaginosa [31]): inactive
7.8 µg/mL (≈ 32.1 µM) | 3.9 µg/mL (≈ 16 µM) | 62.5 µg/mL (≈ 257 µM) | 31.2 µg/mL (≈ 128 µM) | 62.5 µg/mL (≈ 257 µM) | 31.2 µg/mL (≈ 128 µM) | Cc1ccc2nc3[nH]c(=S)[nH]c(=O)c3cc2c1 | 12 mm | 14 mm | inactive | 9 mm | 10 mm | inactive | inactive | 11 mm | 8 mm | 13 mm | inactive | inactive | 8 mm | 12 mm | zone of inhibition at 500 µg/disc (Aspergillus niger [2]): 11 mm; MIC (Lipomyces lipofer [4]): 62.5 µg/mL (≈ 257 µM); zone of inhibition at 1000 µg/disc (Streptomyces albus [6]; NCIM 2178, 24 h, read-out: DIZ): 9 mm; zone of inhibition at 1000 µg/disc (Lipomyces lipofer [8]): 10 mm; diameter of the inhibition zone (DIZ) (Bacillus subtilis [12]): inactive; diameter of the inhibition zone (DIZ) (Candida albicans [13]): inactive; diameter of the inhibition zone (DIZ) (Penicillium chrysogenum [18]): inactive; zone of inhibition at 500 µg/disc (Lipomyces lipofer [24]): 9 mm; diameter of the inhibition zone (DIZ) (Pseudomonas aeruginosa [26]): inactive; zone of inhibition at 500 µg/disc (Klebsiella aerogenes [29]): 9 mm; zone of inhibition at 1000 µg/disc (Rhodotorula mucilaginosa [31]): 9 mm
